Reference: US20240132484A1, “BROAD SPECTRUM ANTIVIRAL COMPOUNDS TARGETING THE SKI COMPLEX” (priority 2020, published 2024)
Values joined by “and” are separate entries in the source; they are usually repeats but may differ in a detail not shown here. Equal entries are not always repeated. Where two headings read alike, the source gives them in different places.

Assays:
[1] = test system: SARS2; format: cell-based, SARS-CoV-2; conditions: for Percentage Infection Relative to Appropriate DMSO Control with Avg Background Subtraction: Greiner Celigo plates; for Percentage Inhibition Average 1 μM / Screening data (Relative infection to DMSO controls) Average 1 μM: SARS2, 1 μM; for Screening data (Relative infection to DMSO controls) Average 1 μM / Screening data (Relative infection to DMSO controls) Average 5 μM / Screening data (Relative infection to DMSO controls) Average 10 μM / Screening data (Relative infection to DMSO controls) Average 25 μM / Screening data (Relative infection to DMSO controls) Average 50 μM / Average (relative infection to DMSO over the 5 tested concentrations): 100=DMSO control; for Percentage Inhibition Average 5 μM / Screening data (Relative infection to DMSO controls) Average 5 μM: SARS2, 5 μM; for Percentage Inhibition Average 10 μM / Screening data (Relative infection to DMSO controls) Average 10 μM: SARS2, 10 μM; for Percentage Inhibition Average 25 μM / Screening data (Relative infection to DMSO controls) Average 25 μM: SARS2, 25 μM; for Percentage Inhibition Average 50 μM / Screening data (Relative infection to DMSO controls) Average 50 μM: SARS2, 50 μM; for Average (relative infection to DMSO over the 5 tested concentrations): SARS2, average over 1 to 50 uM; for Infection Data, Average, Mean: average of Exp 1-3 (SMW475, SMW477, SMW478)
[2] = test system: cells (nuclei count); conditions: for Relative cell count to DMSO controls, Average 1 μM / Relative cell count to DMSO controls, Average 5 μM / Relative cell count to DMSO controls, Average 10 μM / Relative cell count to DMSO controls, Average 25 μM / Relative cell count to DMSO controls, Average 50 μM: toxicity data, 100=DMSO control; for Toxicity Data, Average, Mean: average of Exp 1-3 (SMW475, SMW477, SMW478); for Relative cell count to DMSO controls, Average (for correlation analysis): average value over the 5 tested concentrations (1 to 50 uM); for Toxicity Data: Average, Mean: average of Exp 1-3 (SMW454, SMW466, SMW480), n 9

CCN(CC)CCN(Cc1cccs1)C(=O)c1cccs1 [SILCS34]
Percentage Infection Relative to Appropriate DMSO Control with Avg Background Subtraction ([1]; Exp 1 (SMW475), 1 uM): 84.46% and 79.06% and 78.77% | Percentage Infection Relative to Appropriate DMSO Control with Avg Background Subtraction ([1]; Exp 1 (SMW475), 5 uM): 83.89% and 91.52% and 85.89% | Percentage Infection Relative to Appropriate DMSO Control with Avg Background Subtraction ([1]; Exp 1 (SMW475), 10 uM): 120.42% and 77.92% and 112.44% | Percentage Infection Relative to Appropriate DMSO Control with Avg Background Subtraction ([1]; Exp 1 (SMW475), 25 uM): 73.54% and 67.42% and 88.43% | Percentage Infection Relative to Appropriate DMSO Control with Avg Background Subtraction ([1]; Exp 1 (SMW475), 50 uM): 98.27% and 86.62% and 67.73% | Percentage Infection Relative to Appropriate DMSO Control with Avg Background Subtraction ([1]; Exp 2 (SMW477), 1 uM): 117.81% and 129.29% and 121.32% | Percentage Infection Relative to Appropriate DMSO Control with Avg Background Subtraction ([1]; Exp 2 (SMW477), 5 uM): 137.43% and 146.89% and 126.80% | Percentage Infection Relative to Appropriate DMSO Control with Avg Background Subtraction ([1]; Exp 2 (SMW477), 10 uM): 142.94% and 144.38% and 155.80% | Percentage Infection Relative to Appropriate DMSO Control with Avg Background Subtraction ([1]; Exp 2 (SMW477), 25 uM): 109.38% and 111.61% and 103.44% | Percentage Infection Relative to Appropriate DMSO Control with Avg Background Subtraction ([1]; Exp 2 (SMW477), 50 uM): 62.30% and 66.46% and 58.63% | Percentage Infection Relative to Appropriate DMSO Control with Avg Background Subtraction ([1]; Exp 3 (SMW478), 1 uM): 120.13% and 101.31% and 117.84% | Percentage Infection Relative to Appropriate DMSO Control with Avg Background Subtraction ([1]; Exp 3 (SMW478), 5 uM): 108.72% and 96.17% and 137.98% | Percentage Infection Relative to Appropriate DMSO Control with Avg Background Subtraction ([1]; Exp 3 (SMW478), 10 uM): 127.49% and 93.45% and 116.79% | Percentage Infection Relative to Appropriate DMSO Control with Avg Background Subtraction ([1]; Exp 3 (SMW478), 25 uM): 164.75% and 165.91% and 139.33% | Percentage Infection Relative to Appropriate DMSO Control with Avg Background Subtraction ([1]; Exp 3 (SMW478), 50 uM): 145.01% and 171.02% and 138.34% | Percentage Inhibition Average 1 μM [1]: −5.55% | Screening data (Relative infection to DMSO controls) Average 1 μM [1]: 105.55 | Percentage Inhibition Average 5 μM [1]: −12.81% | Screening data (Relative infection to DMSO controls) Average 5 μM [1]: 112.81 | Percentage Inhibition Average 10 μM [1]: −21.29% | Screening data (Relative infection to DMSO controls) Average 10 μM [1]: 121.29 | Percentage Inhibition Average 25 μM [1]: −13.76% | Screening data (Relative infection to DMSO controls) Average 25 μM [1]: 113.76 | Percentage Inhibition Average 50 μM [1]: 0.62% | Screening data (Relative infection to DMSO controls) Average 50 μM [1]: 99.38 | Average (relative infection to DMSO over the 5 tested concentrations) [1]: 110.56 | Infection Data, Average, Mean ([1]; n 9, 1 uM): 105.55% | Infection Data, Average, Mean ([1]; n 9, 5 uM): 112.81% | Infection Data, Average, Mean ([1]; n 9, 10 uM): 121.29% | Infection Data, Average, Mean ([1]; n 9, 25 uM): 113.76% | Infection Data, Average, Mean ([1]; n 9, 50 uM): 99.38% | Relative cell count to DMSO controls, Average 1 μM [2]: 102.47 | Relative cell count to DMSO controls, Average 5 μM [2]: 99.62 | Relative cell count to DMSO controls, Average 10 μM [2]: 91 | Relative cell count to DMSO controls, Average 25 μM [2]: 89.42 | Relative cell count to DMSO controls, Average 50 μM [2]: 67.85 | Toxicity Data, Average, Mean ([2]; n 9, 1 uM): 102.47% | Toxicity Data, Average, Mean ([2]; n 9, 5 uM): 99.62% | Toxicity Data, Average, Mean ([2]; n 9, 10 uM): 91.00% | Toxicity Data, Average, Mean ([2]; n 9, 25 uM): 89.42% | Toxicity Data, Average, Mean ([2]; n 9, 50 uM): 67.85% | Relative cell count to DMSO controls, Average (for correlation analysis) [2]: 90.07

Cc1ccc(CN(CCN(C)C)Cc2ccc(CO)o2)s1 [SILCS13]
Percentage Infection Relative to DMSO Control, Average, Mean [1]: 85.64% and 142.17% and 120.89% and 97.87% and 94.70% | Percentage Inhibition Average 1 μM [1]: 5.30% | Screening data (Relative infection to DMSO controls) Average 1 μM [1]: 94.70 | Percentage Inhibition Average 5 μM [1]: 2.13% | Screening data (Relative infection to DMSO controls) Average 5 μM [1]: 97.87 | Percentage Inhibition Average 10 μM [1]: −20.89% | Screening data (Relative infection to DMSO controls) Average 10 μM [1]: 120.89 | Percentage Inhibition Average 25 μM [1]: −42.17% | Screening data (Relative infection to DMSO controls) Average 25 μM [1]: 142.17 | Percentage Inhibition Average 50 μM [1]: 14.36% | Screening data (Relative infection to DMSO controls) Average 50 μM [1]: 85.64 | Average (relative infection to DMSO over the 5 tested concentrations) [1]: 108.25 | Toxicity Data: Average, Mean ([2]; 1 uM): 105.73% | Relative cell count to DMSO controls, Average 1 μM [2]: 105.73 | Toxicity Data: Average, Mean ([2]; 5 uM): 107.19% | Relative cell count to DMSO controls, Average 5 μM [2]: 107.19 | Toxicity Data: Average, Mean ([2]; 10 uM): 105.25% | Relative cell count to DMSO controls, Average 10 μM [2]: 105.25 | Toxicity Data: Average, Mean ([2]; 25 uM): 104.32% | Relative cell count to DMSO controls, Average 25 μM [2]: 104.32 | Toxicity Data: Average, Mean ([2]; 50 uM): 78.61% | Relative cell count to DMSO controls, Average 50 μM [2]: 78.61 | Relative cell count to DMSO controls, Average (for correlation analysis) [2]: 100.22
